Test results: patent publication US20130260376A1, “Prediction of and Monitoring Cancer Therapy Response Based on Gene Expression Profiling” (WHITEHEAD INSTITUTE FOR BIOMEDICAL RESEARCH, priority 2010, published 2013)

Test system: HMLER breast cancer populations
Test: Microarray gene expression / Gene Set Enrichment Analysis of HMLER cells after drug treatment versus DMSO control
Format: cell-based
Details: relative to DMSO control, GSEA; for collective expression level of the genes in Table 1 (EMT-associated genes) and subsets thereof upon treatment: FIGS. 2 and 5; for collective expression level of the genes in Table 2 (non-EMT-associated genes) and subsets thereof upon treatment: FIGS. 3 and 4
Protocol: The collective expression levels of the genes in Tables 1 and 2 after paclitaxel treatment were then determined. For these analyses, which are shown in FIGS. 2 and 3, collections of gene subsets of various sizes were chosen.
Next, identical analyses as those described above were performed in the context of treatment with a different anti-cancer agent—salinomycin—that was previously identified as specifically killing invasive cancer stem cells. The opposite expression change (relative to paclitaxel) was observed upon treatment with salinomycin. […] As a consequence, measurement of the expression of the genes in Table 1 (or any appropriate subsets thereof identified according to the methods disclosed herein) would serve to identify tumors that would be responsive to a CSS agent (e.g., salinomycin treatment) when applied as a single agent.

Row | SMILES | collective expression level of the genes in Table 1 (EMT-associated genes) and subsets thereof upon treatment | collective expression level of the genes in Table 2 (non-EMT-associated genes) and subsets thereof upon treatment
1 | CC[C@@H](C(=O)[C@@H](C)[C@@H](O)[C@H](C)[C@@H]1O[C@@H]([C@@H](CC)C(=O)O)CC[C@@H]1C)[C@H]1O[C@]2(C=C[C@@H](O)[C@]3(CC[C@@](C)([C@H]4CC[C@](O)(CC)[C@H](C)O4)O3)O2)[C@H](C)C[C@@H]1C [salinomycin] | under-expressed | over-expressed
2 | CC(=O)O[C@H]1C(=O)[C@@]2(C)[C@H]([C@H](OC(=O)c3ccccc3)[C@]3(O)C[C@H](OC(=O)[C@H](O)[C@@H](NC(=O)c4ccccc4)c4ccccc4)C(C)=C1C3(C)C)[C@]1(OC(C)=O)CO[C@@H]1C[C@@H]2O [paclitaxel] | over-expressed | under-expressed
